Key:
[1] = system: TGF-β, PDGFR and STAT3 pathways in LX2 cells; assay: Western blot of signalling proteins in LX2 cells; assay type: cell-based, human; conditions: FIG. 16D, 16E
Protocol: Rat immortal hepatic stellate cell line HSC-T6 and LX2 human hepatic stellate cell line were provided by Professor Scott Friedman of Mount Sinai Hospital in New York, USA. The primary mouse HSCs were obtained via the way: after intubating the hepatic portal vein of the mouse, the cells were perfused with […] and ethylene glycol bis-aminoethyl ether tetraacetic acid (EGTA) buffer in situ, and then collagenase was injected to digest the liver tissue, and then the primary mouse HSCs were isolated by Histodnz gradient. HSC-T6 cells were cultured in Waymouth medium; LX2 cells and primary mouse HSCs were cultured in Dulbecco's Modified Eagle Medium (DMEM) containing 10% fetal bovine serum (FBS), 100 μg/mL penicillin, 100 μg/mL streptomycin, and 2 mM L-glutamine HSC-T6 cells, LX2 cells and primary mouse HSCs were cultured in a humidified incubator containing 5% carbon dioxide at 37° C. After adding the FBS, the resting HSC is started. […] Whole-cell extracts were obtained via RIPA buffer (Millipore, USA) and protein concentrations were quantified via a BCA protein assay kit (Thermo Fisher Scientific, USA). 20 or 25 μg of protein was added to various percentages of SDS-sodium dodecyl sulfate-acrylamide gel and blotted onto a polyvinylidene fluoride (PVDF) membrane. […] Proteins were detected by Immobilon Western Chemiluminescent HRP substrate (Millipore, USA) or ECL detection system (UVP Corporation, USA). […] Plasmids encoding the human wild-type SHP-1 and SHP-1 mutant, in which the N-SH2 domain was […] was changed into an […]) were cloned into the pCMV6-entry vector with myc-tag. These mutants were confirmed through DNA sequencing. […] (Chicago, Ill., USA).

LX2 cells = assay: Apoptosis (Annexin V / propidium iodide flow cytometry), LX2 cells; assay type: cell-based, human; conditions: LX2; FIG. 16D, 16E
Protocol: Rat immortal hepatic stellate cell line HSC-T6 and LX2 human hepatic stellate cell line were provided by Professor Scott Friedman of Mount Sinai Hospital in New York, USA. The primary mouse HSCs were obtained via the way: after intubating the hepatic portal vein of the mouse, the cells were perfused with […] and ethylene glycol bis-aminoethyl ether tetraacetic acid (EGTA) buffer in situ, and then collagenase was injected to digest the liver tissue, and then the primary mouse HSCs were isolated by Histodnz gradient. HSC-T6 cells were cultured in Waymouth medium; LX2 cells and primary mouse HSCs were cultured in Dulbecco's Modified Eagle Medium (DMEM) containing 10% fetal bovine serum (FBS), 100 μg/mL penicillin, 100 μg/mL streptomycin, and 2 mM L-glutamine HSC-T6 cells, LX2 cells and primary mouse HSCs were cultured in a humidified incubator containing 5% carbon dioxide at 37° C. After adding the FBS, the resting HSC is started. […] The experiment was carried out following the manufacturer's instructions, and each group was triple repetition. […] The proportion of apoptotic cells was mixed the early (Annexin V+/PI-) and the late (Annexin V+/PI+) apoptotic cells measured by BD FACS Verse flow cytometry (BD, USA). Plasmids encoding the human wild-type SHP-1 and SHP-1 mutant, in which the N-SH2 domain was […] was changed into an […]) were cloned into the pCMV6-entry vector with myc-tag. These mutants were confirmed through DNA sequencing. […] (Chicago, Ill., USA).

SHP-1 [2] = biological target: T1, SHP-1 (Rattus norvegicus, UniProt P81718); assay: SHP-1 phosphatase activity, HSC-T6 cells; assay type: cell-based; conditions: sorafenib 5 μM, compound 2.5 or 5 μM, FIG. 16C
T1 construct: endogenous in cells; host or cells: HSC-T6 cells

[3] = system: CCl4-induced hepatic fibrosis in mice; assay: CCl4-induced hepatic fibrosis mice treatment model; assay type: in vivo, male C57BL/6J mice; conditions: compound 5, 10, or 20 mg/kg or sorafenib 10 mg/kg, with CCl4 for 6 weeks after 2 weeks CCl4 induction; FIG. 12A
From the text: (§1) In male C57BL/6J mice, liver fibrosis was induced by carbon tetrachloride (CCl4). The mice were given peritoneal injection of carbon tetrachloride for 4 or 8 weeks every two weeks.
(§2) The mice liver samples were stored in 10% formaldehyde, dehydrated with gradient alcohol, embedded in paraffin blocks, sectioned to a thickness of 3 μm, placed on glass slides, and stained with Picrosirius Red Stain kit (ScyTek, USA), following the manufacturer's instructions. The severity of liver fibrosis was graded according to the Ishak fibrosis score. Quantitative collagen-positive area (qCPA) was determined by densitometry via ImageJ software. Hepatic hydroxyproline concentrations were measured by the hydroxyproline assay kit (Biovision, USA), following the manufacturer's instructions Immunohistochemistry was performed by the Leica BOND-MAX automatic chromatograph (Leica Biosystems, Germany), following the manufacturer's instructions.
Continuous variables are presented as mean (standard error), and categorical data are presented as number (percentage), as appropriate. Differences between subgroups were evaluated using the Student t test. Spearman's correlation was used for the association between SHP-1 and serum alanine aminotransferase (ALT). The mouse survival rate was estimated using the Kaplan-Meier method. The log-rank test was used to determine the statistical differences in survival of the different experimental groups. Statistical analysis was performed using STATA (version 13, Stata Corp, College Station, Tex., USA). All tests were two-sided, and P<0.05 was considered significant.

SHP-1 [4] = biological target: T2, SHP-1 (Homo sapiens, UniProt P29350); assay: SHP-1 phosphatase activity, LX2 cells; assay type: cell-based; conditions: LX2; sorafenib 5 μM, compound 2.5 or 5 μM; FIG. 16C
T2 construct: LX2 cell protein extract were reacted with anti-SHP-1 antibody in immunoprecipitation buffer overnight; endogenous in cells; host or cells: LX2 cells
Protocol: After drug treatment, mouse fibroblasts (NIH3T3 cell line), human lung epithelial cells (A549 cell line) or LX2 cell protein extract were reacted with anti-SHP-1 antibody in immunoprecipitation buffer overnight. Protein A/G Sepharose Fast Flow Beads (GE) were added to each sample, followed by a rotation reaction at 4° C. for 3 hours. The 96EnzChek® tyrosine phosphatase assay kit (R-22067) was used for SHP-1 activity assay (Invitrogen, USA).
Plasmids encoding the human wild-type SHP-1 and SHP-1 mutant, in which the N—SH2 domain was truncated (dN1) or one aspartic acid at site 61 was changed into an alanine residue (D61A) were cloned into the pCMV6-entry vector with myc-tag. These mutants were confirmed through DNA sequencing. Smart-pool siRNA, including the control (D-001810-10), and SHP-1 (PTPN6, L-009778-00-0005) were obtained from Dharmacon Inc. (Chicago, Ill., USA). For transient expression, SHP-1 plasmids or siRNA (final concentration, 100 nM) with the Lipofectamine 2000 transfection reagent were pretransfected into the LX2 cells for 24 h, following the manufacturer's instructions.

[5] = system: CCl4-induced hepatic fibrosis in mice; assay: CCl4-induced hepatic fibrosis mice prevention model; assay type: in vivo, male C57BL/6J mice; conditions: concurrently administered with CCl4 for 4 weeks; FIG. 11A-11E
From the text: as §1, §2

T2 sequence (P29350 whole entry): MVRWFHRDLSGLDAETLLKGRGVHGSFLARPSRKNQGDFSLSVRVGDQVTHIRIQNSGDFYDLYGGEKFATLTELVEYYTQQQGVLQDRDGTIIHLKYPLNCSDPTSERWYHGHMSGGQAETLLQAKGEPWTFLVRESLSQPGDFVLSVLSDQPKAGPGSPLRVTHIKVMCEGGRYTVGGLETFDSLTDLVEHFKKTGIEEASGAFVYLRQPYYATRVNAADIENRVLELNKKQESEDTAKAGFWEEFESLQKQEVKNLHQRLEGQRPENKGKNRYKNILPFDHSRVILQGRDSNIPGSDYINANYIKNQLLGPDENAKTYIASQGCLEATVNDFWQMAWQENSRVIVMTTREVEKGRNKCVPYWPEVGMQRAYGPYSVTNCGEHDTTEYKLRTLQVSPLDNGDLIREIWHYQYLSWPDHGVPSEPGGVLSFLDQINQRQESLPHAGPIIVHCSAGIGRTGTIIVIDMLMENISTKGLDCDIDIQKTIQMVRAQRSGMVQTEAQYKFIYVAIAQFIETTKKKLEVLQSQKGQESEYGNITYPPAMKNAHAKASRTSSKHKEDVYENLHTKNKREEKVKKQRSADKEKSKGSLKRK
T1 sequence (P81718 whole entry): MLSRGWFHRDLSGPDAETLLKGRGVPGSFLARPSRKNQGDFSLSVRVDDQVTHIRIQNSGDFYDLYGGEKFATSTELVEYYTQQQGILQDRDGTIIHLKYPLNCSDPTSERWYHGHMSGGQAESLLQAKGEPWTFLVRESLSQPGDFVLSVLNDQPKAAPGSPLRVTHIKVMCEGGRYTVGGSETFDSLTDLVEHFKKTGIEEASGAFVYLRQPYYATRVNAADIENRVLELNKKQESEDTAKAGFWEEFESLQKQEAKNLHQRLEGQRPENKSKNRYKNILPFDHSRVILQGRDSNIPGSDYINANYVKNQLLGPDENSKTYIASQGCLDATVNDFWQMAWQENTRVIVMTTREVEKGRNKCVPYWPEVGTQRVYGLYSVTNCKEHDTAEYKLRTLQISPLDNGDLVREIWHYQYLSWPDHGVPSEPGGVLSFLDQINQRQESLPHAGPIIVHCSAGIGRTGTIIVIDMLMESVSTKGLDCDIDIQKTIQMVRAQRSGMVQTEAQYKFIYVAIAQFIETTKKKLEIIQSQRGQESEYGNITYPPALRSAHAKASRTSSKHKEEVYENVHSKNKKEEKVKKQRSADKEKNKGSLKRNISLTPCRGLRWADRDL

SHP-1 activity (SHP-1 [2]) | SHP-1 activity (SHP-1 [4]) | Compound | p-STAT3 in compound-treated LX2 cells in the presence of a phosphatase inhibitor [1] | compound-induced apoptosis of LX2 cells in the presence of a phosphatase inhibitor (LX2 cells) | hepatic fibrosis (picrosirius red staining) [3] | hepatic fibrosis (Picrosirius Red staining, qCPA, Ishak fibrosis score, α-SMA expression, hydroxyproline concentration) [5]
– | – | Sodium vanadate [reference compound] | upregulation | rescued | – | –
increases the activity of SHP-1 | increases the activity of SHP-1 | CNC(=O)c1cc(Oc2ccc(NC(=O)Nc3ccc(Cl)c(C(F)(F)F)c3)cc2)ccn1 [sorafenib, reference compound] | – | – | significantly improved hepatic fibrosis | significant fibrosis regression
– | – | O=C(O)COc1ccc(C(=O)CBr)cc1 [PTP inhibitor III, reference compound] | upregulated | rescued | – | –
